Test results as given in US9504671B2, “Pharmaceutical compositions of spiro-oxindole compound for topical administration and their use as therapeutic agents” (Xenon Pharmaceuticals Inc., priority 2010, dated 2016).

How the values were obtained:
[1] = systemic plasma concentration after topical or oral dosing in CCI rats (HPLC/MS/MS); assay type: in vivo, male Sprague Dawley rats; details: 8% (w/w) topical vs 25 mg/Kg oral, blood 10-15 minutes after efficacy time points, p<0.0001
Protocol: Blood samples were taken from the same animals immediately after withdrawal threshold measurements using the following procedure at approximately 10-15 minutes after their respective efficacy time points. The rats were bled by jugular vein puncture while under anaesthesia. The time at which each blood sample was drawn, relative to the time of dosing, was recorded. Each blood sample (˜150 μL) was collected into a heparin-coated, labelled microvette tube containing 10 μL of heparin (100 Units) and placed on ice immediately. The blood samples were centrifuged at 4° C. to separate the plasma. The plasma was transferred to labelled tubes and snap-frozen in liquid nitrogen for storage at −80° C. At the time of analysis, the plasma was thawed and extracted using solid phase extraction, and the plasma drug concentration was quantified by HPLC/MS/MS.

[2] = tested on: STZ-induced neuropathic pain model; assay: STZ model of diabetic neuropathy, von Frey; assay type: in vivo, male Sprague-Dawley rats; details: 4% (w/w) topical composition, 50 mg on left foot, 30 minutes post-dosing, p<0.05
Description: This study evaluates the efficacy of a pharmaceutical composition of the invention in the STZ-induced neuropathic pain model in male Sprague-Dawley rats, following acute dosing, as compared with a 5% (w/v) topical Lidocaine (Xylocaine®) and a 1.16% (w/v) topical Diclofenac (Voltaren®). A rodent model of painful peripheral diabetic neuropathy (PDN) that mimics human condition was created by inducing a diabetic state in the rat through the ablation of the insulin producing pancreatic beta cells. A single streptozotocin (STZ) injection destroys beta cells in rats and produces a diabetic state that over time progresses to painful Peripheral Diabetic Neuropathy (PDN).
Streptozotocin (STZ) was dissolved in citrate buffer (20 mM, pH 4.5) and administered at a dose of 60 mg/Kg, intraperitoneal, to induce pancreatic beta-cell death. Blood glucose level was measured once a week following injection, using the AccuSoft Blood Glucose Monitoring System. […] Hyperalgesia and allodynia, which are signs of diabetic neuropathic pain, were monitored using the von Frey test as described below. Von Frey measurements were recorded from both left and right paws. Only those with significant hyperalgesia as determined by reduced threshold, measured in grams, of paw withdrawal to the von Frey filament were enrolled in the study. […] During this time their health status was closely monitored.
The animals were randomly divided into 4 test groups (n=7 animals/group) including a vehicle control, a 5% (w/v) Lidocaine (Xylocaine®), a 1.16% (w/v) Diclofenac (Voltaren®), and a pharmaceutical composition with 4% (w/w) COMPOUND A. After baseline measurement, 50 mg of the test composition was applied on the entire left foot. […] The paw withdrawal thresholds of animals from mechanical tactile stimuli were measured using the Electrovonfrey anesthesiometer (Model 2290, IITC Life Science, Woodland Hills, Calif.). […] The force (g) required to elicit a crisp withdrawal response was recorded before dosing as a baseline measurement, and at 30 minutes post-dosing. […]

[3] = tested on: CCI-induced neuropathic pain model; assay: time course of efficacy in neuropathic pain model, Chronic Constriction Injury, von Frey; assay type: in vivo, Sprague-Dawley rats
Protocol: Neuropathic pain is characterized by spontaneous pain and stimulus-evoked allodynia and hyperalgesia. Pharmaceutical compositions of the invention were evaluated in Chronic Constriction Injury model using Sprague-Dawley rats as described below.
An approximately 3 cm incision was made through the skin and the fascia at the mid thigh level of a rat's left hind leg using a no. 10 scalpel blade. The left sciatic nerve was exposed via blunt dissection through the biceps femoris with care to minimize haemorrhagia. Four loose ligatures were tied along the sciatic nerve using four chromic gut sutures at intervals of 1 mm to 2 mm apart. The tension of the loose ligatures was tight enough to induce slight constriction of the sciatic nerve when viewed under a dissection microscope at a magnification of 4 fold. As sham controls, the right sciatic nerve was exposed and manipulated in the same manner as described above, except sutures were not tied onto the nerve. Antibacterial ointment was applied directly into the wound, and the muscle was closed using sterilized sutures. Betadine® was applied onto the muscle and its surroundings, followed by skin closure with surgical clips.
A painful neuropathy was allowed to develop for at least 14 days in the ipsilateral leg as determined by lower paw withdrawal thresholds to a mechanical stimulus. Only those with significant hyperalgesia, as determined by reduced threshold of paw withdrawal to the von Frey filament, measured in grams, were enrolled in the study.
The response thresholds of animals to tactile stimuli were measured using the Model 2290 Electrovonfrey anesthesiometer (IITC Life Science, Woodland Hills, Calif.). Animals were placed in an elevated Plexiglass enclosure set on a mire mesh surface. After 15 minutes of accommodation, a von Frey hair was applied perpendicularly to the plantar surface of the ipsilateral hind paws of the animals with sufficient force, measured in grams, to elicit a crisp response of the paw. The response indicated a withdrawal from the painful stimulus and constituted the efficacy endpoint. The force (in grams) required to elicit a crisp withdrawal response was recorded before dosing as a baseline measurement, and at multiple time points post-dosing.
Three days prior to baseline measurement, animals were anaesthetized under isoflurane and the whole of the ipsilateral hind legs, including the upper sciatic notch thigh area, ankle and foot, was shaved. The animals were then randomly assigned to one of 4 different test groups including a vehicle control group, a 5% (w/v) Lidocaine (Xylocaine®), and 2 pharmaceutical compositions of the invention comprising COMPOUND A at 4% (w/w) containing either 5% or 10% Transcutol® P. After baseline measurement, 100 mg of the test composition was applied on the entire shaved area. The animals were then placed in plastic tubes for at least 15 minutes, to prevent early removal/ingestion of drug. Subsequently, animals were placed in the Plexiglas enclosure 15 minutes before von Frey measurement at the respective time points. Von Frey withdrawal thresholds were measured as the mean of several independent determinations made within 1-2 minutes of each other on the affected paw of each animal at 0.5, 1 and 2 hours post dosing.

In the case of O=C1N(Cc2ccc(C(F)(F)F)o2)c2ccccc2[C@]12COc1cc3c(cc12)OCO3 [COMPOUND A, (S)-1′-{[5-(trifluoromethyl)furan-2-yl]methyl}spiro[furo[2,3-f][1,3]benzodioxole-7,3′-indol]-2′(1′H)-one], the “plasma level in topical dosage group lower than in oral dosage group (fold)” value [1] is reported as ~20 ×, the “paw withdrawal threshold of treated paw, percent mean change from baseline (CFB)” value [2] is reported as 44.9% and the “paw withdrawal threshold, percent mean change from baseline (CFB)” value ([3]; 4% (w/w) in 5% Transcutol P composition, 100 mg applied, 0.5 hours post-dosing) is reported as “+26.3%”. The “paw withdrawal threshold, percent mean change from baseline (CFB)” value ([3]; 4% (w/w) in 5% Transcutol P composition, 1 hour post-dosing) was “+18.1%”, the “paw withdrawal threshold, percent mean change from baseline (CFB)” value ([3]; 4% (w/w) in 10% Transcutol P composition, 100 mg applied, 0.5 hours post-dosing) was “+33.8%” and the “paw withdrawal threshold, percent mean change from baseline (CFB)” value ([3]; 4% (w/w) in 10% Transcutol P composition, 1 hour post-dosing) was “+26.7%”. For the same molecule, the “duration of analgesic effects post-dosing” value ([3]; 4% (w/w) in 10% transcutol composition, from 0.5 hour) was “up to 2 hours”.
